Laboratory results published in patent US20260285850A1, “SUBSTITUTED OXAZOLIDINONES AND IMIDAZOLINONES AS HERBICIDES” (FMC CORPORATION, priority 2023, published 2026).

Assays:
Format in all cases: in vivo
[1] = test system: horseweed (Erigeron canadensis); assay: Test A postemergence application, visual injury rating 0-100
Method in brief: (§1)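 Scale 0–100 (no effect to complete control), visual, versus untreated controls, read 10 days after application. Application: preemergence directed spray onto seeded loam–sand soil, or postemergence to young plants; formulation in non-phytotoxic solvent with surfactant.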

soybean (Glycine max) [2] = assay: as above
Method in brief: as §1

[3] = test system: galium (catchweed bedstraw, Galium aparine); assay: as above
Method in brief: as §1

kochia (Bassia scoparia) [4] = assay: as above
Method in brief: as §1

[5] = test system: barnyardgrass (Echinochloa crus-galli); assay: as above
Method in brief: as §1

[6] = test system: blackgrass (Alopecurus myosuroides); assay: as above
Method in brief: as §1

[7] = test system: ragweed (common ragweed, Ambrosia artemisiifolia); assay: as above
Method in brief: as §1

[8] = test system: wheat (Triticum aestivum); assay: as above
Method in brief: as §1

[9] = test system: ryegrass, Italian (italian ryegrass, Lolium multiflorum); assay: as above
Method in brief: as §1

corn (Zea mays) [10] = assay: as above
Method in brief: as §1

[11] = test system: oat, wild (wild oat, Avena fatua); assay: as above
Method in brief: as §1

[12] = test system: palmer (palmer amaranth, palmer pigweed, Amaranthus palmeri); assay: as above
Method in brief: as §1

[13] = test system: green foxtail (Setaria viridis); assay: as above
Method in brief: as §1

soybean (Glycine max) [14] = assay: Test A preemergence soil spray, visual injury rating 0-100; settings: 10 days
Method in brief: as §1

kochia (Bassia scoparia) [15] = assay: as above; settings: 10 days
Method in brief: as §1

[16] = test system: barnyardgrass (Echinochloa crus-galli); assay: as above; settings: 10 days
Method in brief: as §1

[17] = test system: blackgrass (Alopecurus myosuroides); assay: as above; settings: 10 days
Method in brief: as §1

[18] = test system: ragweed (common ragweed, Ambrosia artemisiifolia); assay: as above; settings: 10 days
Method in brief: as §1

[19] = test system: wheat (Triticum aestivum); assay: as above; settings: 10 days
Method in brief: as §1

[20] = test system: ryegrass, Italian (italian ryegrass, Lolium multiflorum); assay: as above; settings: 10 days
Method in brief: as §1

corn (Zea mays) [21] = assay: as above; settings: 10 days
Method in brief: as §1

[22] = test system: oat, wild (wild oat, Avena fatua); assay: as above; settings: 10 days
Method in brief: as §1

[23] = test system: palmer (palmer amaranth, palmer pigweed, Amaranthus palmeri); assay: as above; settings: 10 days
Method in brief: as §1

[24] = test system: green foxtail (Setaria viridis); assay: as above; settings: 10 days
Method in brief: as §1

[25] = test system: barnyardgrass (Echinochloa crusgalli); assay: Test B flooded paddy test, visual plant response rating 0-100; settings: 250 g ai/ha, Flood, applied to paddy water, evaluated after 13 days
Method in brief: (§2)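 Greenhouse, 13 d. Seedlings at 2-leaf stage, pots flooded to 3 cm, compound delivered into floodwater, water level held constant. Evaluated visually relative to controls.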

rice (Oryza sativa) = assay: as above; settings: 250 g ai/ha, Flood, applied to paddy water, evaluated after 13 days
Method in brief: as §2

[26] = test system: ducksalad (Heteranthera limosa); assay: as above; settings: 250 g ai/ha, Flood, applied to paddy water, evaluated after 13 days
Method in brief: as §2

[27] = test system: sedge, umbrella (small-flower umbrella sedge, Cyperus difformis); assay: as above; settings: 250 g ai/ha, Flood, applied to paddy water, evaluated after 13 days
Method in brief: as §2

[28] = 62 g ai/ha, postemergence, 10 days, 0 = no effect, 100 = complete control
[29] = Postemergence, 16 g ai/ha, greenhouse 10 days, 0 no effect, 100 complete control
[30] = 62 g ai/ha, 0 = no effect, 100 = complete control
[31] = 125 g ai/ha, 0 = no effect, 100 = complete control

`CC(C)COC(=O)C1=CCC(NC(=O)C2(C)CN(c3cc(F)cc(F)c3)C(=O)O2)C1` (centres unmarked) [Compound 98] was tested, and the “Horseweed plant response rating (0-100)” value [1, 28] was 60, the “Horseweed plant response rating (0 to 100 scale)” value [1, 29] was 20 and the “Soybean plant response rating (0-100)” value (soybean (Glycine max) [2]; [28]) was 60. The “Soybean plant response rating (0 to 100 scale)” value (soybean (Glycine max) [2]; [29]) was 50, the “Galium plant response rating (0-100)” value [3, 28] was 90 and the “Galium plant response rating (0 to 100 scale)” value [3, 29] was 80. For the same compound, the “Kochia plant response rating (0-100)” value (kochia (Bassia scoparia) [4]; [28]) was 90, the “Kochia plant response rating (0 to 100 scale)” value (kochia (Bassia scoparia) [4]; [29]) was 80 and the “Barnyardgrass plant response rating (0-100)” value [5, 28] was 100. For the same compound, the “Barnyardgrass plant response rating (0 to 100 scale)” value [5, 29] was 100, the “Blackgrass plant response rating (0-100)” value [6, 28] was 90 and the “Blackgrass plant response rating (0 to 100 scale)” value [6, 29] was 80. The “Ragweed plant response rating (0-100)” value [7, 28] was 60, the “Ragweed plant response rating (0 to 100 scale)” value [7, 29] was 50 and the “Wheat plant response rating (0-100)” value [8, 28] was 80. The “Wheat plant response rating (0 to 100 scale)” value [8, 29] was 70, the “Ryegrass, Italian plant response rating (0-100)” value [9, 28] was 90 and the “Ryegrass, Italian plant response rating (0 to 100 scale)” value [9, 29] was 80. For the same compound, the “Corn plant response rating (0-100)” value (corn (Zea mays) [10]; [28]) was 100, the “Corn plant response rating (0 to 100 scale)” value (corn (Zea mays) [10]; [29]) was 90 and the “Oat, Wild plant response rating (0-100)” value [11, 28] was 100. The “Oat, Wild plant response rating (0 to 100 scale)” value [11, 29] was 60, the “Pigweed, Palmer plant response rating (0-100)” value [12, 28] was 90 and the “Pigweed, Palmer plant response rating (0 to 100 scale)” value [12, 29] was 70. For the same compound, the “Foxtail, Green plant response rating (0-100)” value [13, 28] was 90, the “Foxtail, Green plant response rating (0 to 100 scale)” value [13, 29] was 80 and the “Soybean plant response rating” value (soybean (Glycine max) [14]; 16 g ai/ha, 0 to 100 scale) was 0. The “Soybean plant response rating (0-100)” value (soybean (Glycine max) [14]; [30]) was 50, the “Soybean plant response rating (0 to 100 scale)” value (soybean (Glycine max) [14]; [31]) was 10 and the “Kochia plant response rating” value (kochia (Bassia scoparia) [15]; 16 g ai/ha, 0 to 100 scale) was 80. The “Kochia plant response rating (0-100)” value (kochia (Bassia scoparia) [15]; [30]) was 90, the “Kochia plant response rating (0 to 100 scale)” value (kochia (Bassia scoparia) [15]; [31]) was 90 and the “Barnyardgrass plant response rating” value ([16]; 16 g ai/ha, 0 to 100 scale) was 10. The “Barnyardgrass plant response rating (0-100)” value [16, 30] was 90, the “Barnyardgrass plant response rating (0 to 100 scale)” value [16, 31] was 70 and the “Blackgrass plant response rating” value ([17]; 16 g ai/ha, 0 to 100 scale) was 10. The “Blackgrass plant response rating (0-100)” value [17, 30] was 50, the “Blackgrass plant response rating (0 to 100 scale)” value [17, 31] was 0 and the “Ragweed plant response rating” value ([18]; 16 g ai/ha, 0 to 100 scale) was 0. The “Ragweed plant response rating (0-100)” value [18, 30] was 0, the “Ragweed plant response rating (0 to 100 scale)” value [18, 31] was 50 and the “Wheat plant response rating” value ([19]; 16 g ai/ha, 0 to 100 scale) was 30. The “Wheat plant response rating (0-100)” value [19, 30] was 90, the “Wheat plant response rating (0 to 100 scale)” value [19, 31] was 70 and the “Ryegrass, Italian plant response rating” value ([20]; 16 g ai/ha, 0 to 100 scale) was 0. For the same compound, the “Ryegrass, Italian plant response rating (0-100)” value [20, 30] was 80, the “Ryegrass, Italian plant response rating (0 to 100 scale)” value [20, 31] was 80 and the “Corn plant response rating” value (corn (Zea mays) [21]; 16 g ai/ha, 0 to 100 scale) was 0. For the same compound, the “Corn plant response rating (0-100)” value (corn (Zea mays) [21]; [30]) was 90, the “Corn plant response rating (0 to 100 scale)” value (corn (Zea mays) [21]; [31]) was 20 and the “Oat, Wild plant response rating” value ([22]; 16 g ai/ha, 0 to 100 scale) was 0. For the same compound, the “Oat, Wild plant response rating (0-100)” value [22, 30] was 40, the “Oat, Wild plant response rating (0 to 100 scale)” value [22, 31] was 20 and the “Pigweed, Palmer plant response rating” value ([23]; 16 g ai/ha, 0 to 100 scale) was 10. For the same compound, the “Pigweed, Palmer plant response rating (0-100)” value [23, 30] was 50, the “Amaranth, Palmer plant response rating (0 to 100 scale)” value [23, 31] was 100 and the “Foxtail, Green plant response rating” value ([24]; 16 g ai/ha, 0 to 100 scale) was 70. For the same compound, the “Foxtail, Green plant response rating (0-100)” value [24, 30] was 100, the “Plant response rating, Barnyardgrass (0 to 100 scale, 0 is no effect and 100 is complete control)” value [25] was 65 and the “Plant response rating, Rice (0 to 100 scale, 0 is no effect and 100 is complete control)” value (rice (Oryza sativa)) was 70. For the same compound, the “Plant response rating, Ducksalad (0 to 100 scale, 0 is no effect and 100 is complete control)” value [26] was 75 and the “Plant response rating, Sedge, Umbrella (0 to 100 scale, 0 is no effect and 100 is complete control)” value [27] was 98.
